{"source": "patent US20190046446A1", "about": "“APO-E MODIFIED LIPID NANOPARTICLES FOR DRUG DELIVERY TO TARGETED TISSUES AND THERAPEUTIC METHODS” (Eriochem USA, LLC, priority 2016, published 2019)", "key": {"[1]": {"assay": "Liver accumulation of Docetaxel in rabbits", "type": "in vivo", "conditions": "iv, 2.5 mg/kg DCX", "method": "In measuring the liver accumulation, the animals were randomly divided into four groups following the above plasma assay. The groups were as follows:\nThe livers of the rabbits were totally removed at 24 hours and 36 hours, then weighed, frozen and stored at […]. The rabbit liver samples were precipitated with acetonitrile, followed by solid phase extraction (SPE), evaporation and resuspension of the resulting extract in a solvent and then analyzed by injection into LC ESI MS/MS. The determinations were performed by liquid chromatography and mass spectrometry (using a Shimadzu UFLC XR liquid chromatograph coupled to a AB Sciex 3200 QTrap mass spectrometer).\nValues are Media±SEM. (N=5)."}, "[2]": {"system": "New Zealand rabbits", "assay": "Blood counts (hemogram) in rabbits;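 further: compound given into the marginal ear vein under ketamine-xylazine-acepromazine anesthesia, blood drawn from the ear central artery after sedation, seven samplings from one day before to day 20 after first dose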", "conditions": "iv, 3 cycles every 7 days", "quoted_text": "The intravenous administration was performed in the marginal ear vein and previously rabbits underwent anesthesia intramuscular injection by a combination of Ketamine-Xylazine-Acepromazine (2.4 mg/kg acepromazine, 48 mg/kg Ketamine and 5 mg/kg xylazine)\nBlood samples were taken from the central artery of the ear, after sedation. A total of 7 samples were taken for each rabbit, and samples were taken a day before the first doses (−1), and on days 1, 6, 8, 13, 15 and 20 after the first dose."}, "[3]": {"system": "PC3 (prostate cancer epithelial cells)", "assay": "In vitro cytotoxicity assay (MTS), PC3", "type": "cell-based, human", "method": "50 μL of the cell suspensions were seeded in 96-well plates in duplicate with Dulbecco's basal medium plus 10% fetal bovine serum supplemented with 10% fetal bovine serum (FBS) for PC-3, and with DMEM/Ham's F12 medium containing 10% FBS, 1% 1-glutamine for A549 cell line. Both were maintained in culture for 24 hours. The cells were then treated with serial diluted concentrations of DCX starting from 100 nM and incubated for 48 hours. At the end of incubation, 20 μL/well of MTS/PMs solution (2 mL of MTS with 100 μL of PMS solution) were added. Then, plates were incubated at 37° C., 5% CO2 for 4 hours.\nAbsorbance values obtained from the in vitro cytotoxicity assay of DCX, Nano+DCX, and Nano+DCX+ApoE3 samples were plotted based on the DCX concentration employed, using OriginPro 8 software (ORIGINLAB Corporation, USA). The IC50 (nM) of each of the samples was determined at 50% of the maximum absorbance value obtained, corresponding to the value obtained for the growth control."}}, "note": "Values joined by “and” are separate entries in the source; they are usually repeats but may differ in a detail not shown here. Equal values may be shown once. Read-outs that look alike come from different tables or passages of the source.", "data": [{"smiles": "CC(=O)O[C@@]12CO[C@@H]1C[C@H](O)[C@@]1(C)C(=O)[C@H](O)C3=C(C)[C@@H](OC(=O)[C@H](O)[C@@H](NC(=O)OC(C)(C)C)c4ccccc4)C[C@@](O)([C@@H](OC(=O)c4ccccc4)[C@H]21)C3(C)C", "note": "[TAXOTERE, Docetaxel]", "values": [{"measurement": "DCX Concentration in Liver", "setting": "[1]; 24 hours", "result": "446 ± 66"}, {"measurement": "DCX Concentration in Liver", "setting": "[1]; 36 hours", "result": "495 ± 126"}, {"measurement": "Hematocrit", "setting": "[2]; Sample 1 (day -1)", "result": 40, "unit": "%"}, {"measurement": "MCH", "setting": "[2]; Sample 1 (day -1)", "result": 20, "unit": "pg"}, {"measurement": "MCHC", "setting": "[2]; Sample 1 (day -1)", "result": 28, "unit": "g/dL"}, {"measurement": "MCV", "setting": "[2]; Sample 1 (day -1)", "result": 71, "unit": "fL"}, {"measurement": "Red Cells", "setting": "[2]; Sample 1 (day -1)", "result": "5.7 × 10^6/mm^3"}, {"measurement": "White Blood Cells", "setting": "[2]; Sample 1 (day -1)", "result": "6720 /mm"}, {"measurement": "Hematocrit", "setting": "[2]; Sample 2 (day 1)", "result": 37, "unit": "%"}, {"measurement": "MCH", "setting": "[2]; Sample 2 (day 1)", "result": 20, "unit": "pg"}, {"measurement": "MCHC", "setting": "[2]; Sample 2 (day 1)", "result": 28, "unit": "g/dL"}, {"measurement": "MCV", "setting": "[2]; Sample 2 (day 1)", "result": 71, "unit": "fL"}, {"measurement": "Red Cells", "setting": "[2]; Sample 2 (day 1)", "result": "5.2 × 10^6/mm^3"}, {"measurement": "White Blood Cells", "setting": "[2]; Sample 2 (day 1)", "result": "6175 /mm"}, {"measurement": "Hematocrit", "setting": "[2]; Sample 3 (day 6)", "result": 37, "unit": "%"}, {"measurement": "MCH", "setting": "[2]; Sample 3 (day 6)", "result": 20, "unit": "pg"}, {"measurement": "MCHC", "setting": "[2]; Sample 3 (day 6)", "result": 28, "unit": "g/dL"}, {"measurement": "MCV", "setting": "[2]; Sample 3 (day 6)", "result": 70, "unit": "fL"}, {"measurement": "Red Cells", "setting": "[2]; Sample 3 (day 6)", "result": "5.2 × 10^6/mm^3"}, {"measurement": "White Blood Cells", "setting": "[2]; Sample 3 (day 6)", "result": "3800 /mm"}, {"measurement": "Hematocrit", "setting": "[2]; Sample 4 (day 8)", "result": 39, "unit": "%"}, {"measurement": "MCH", "setting": "[2]; Sample 4 (day 8)", "result": 19, "unit": "pg"}, {"measurement": "MCHC", "setting": "[2]; Sample 4 (day 8)", "result": 25, "unit": "g/dL"}, {"measurement": "MCV", "setting": "[2]; Sample 4 (day 8)", "result": 69, "unit": "fL"}, {"measurement": "Red Cells", "setting": "[2]; Sample 4 (day 8)", "result": "5.6 × 10^6/mm^3"}, {"measurement": "White Blood Cells", "setting": "[2]; Sample 4 (day 8)", "result": "3500 /mm"}, {"measurement": "Hematocrit", "setting": "[2]; Sample 5 (day 13)", "result": 24, "unit": "%"}, {"measurement": "MCH", "setting": "[2]; Sample 5 (day 13)", "result": 19, "unit": "pg"}, {"measurement": "MCHC", "setting": "[2]; Sample 5 (day 13)", "result": 28, "unit": "g/dL"}, {"measurement": "MCV", "setting": "[2]; Sample 5 (day 13)", "result": 69, "unit": "fL"}, {"measurement": "Red Cells", "setting": "[2]; Sample 5 (day 13)", "result": "3.9 × 10^6/mm^3"}, {"measurement": "White Blood Cells", "setting": "[2]; Sample 5 (day 13)", "result": "4000 /mm"}, {"measurement": "Hematocrit", "setting": "[2]; Sample 6 (day 15)", "result": 31, "unit": "%"}, {"measurement": "MCH", "setting": "[2]; Sample 6 (day 15)", "result": 20, "unit": "pg"}, {"measurement": "MCHC", "setting": "[2]; Sample 6 (day 15)", "result": 29, "unit": "g/dL"}, {"measurement": "MCV", "setting": "[2]; Sample 6 (day 15)", "result": 70, "unit": "fL"}, {"measurement": "Red Cells", "setting": "[2]; Sample 6 (day 15)", "result": "4.4 × 10^6/mm^3"}, {"measurement": "White Blood Cells", "setting": "[2]; Sample 6 (day 15)", "result": "5500 /mm"}, {"measurement": "Hematocrit", "setting": "[2]; Sample 7 (day 20)", "result": 19, "unit": "%"}, {"measurement": "MCH", "setting": "[2]; Sample 7 (day 20)", "result": 20, "unit": "pg"}, {"measurement": "MCHC", "setting": "[2]; Sample 7 (day 20)", "result": 44, "unit": "g/dL"}, {"measurement": "MCV", "setting": "[2]; Sample 7 (day 20)", "result": 45, "unit": "fL"}, {"measurement": "Red Cells", "setting": "[2]; Sample 7 (day 20)", "result": "4.2 × 10^6/mm^3"}, {"measurement": "White Blood Cells", "setting": "[2]; Sample 7 (day 20)", "result": "2900 /mm"}, {"measurement": "IC50", "setting": "[3]; Homo sapiens, Epithelial cell, 48 h, Normal Serum, 48 hours, read-out: IC50 in PC3, individual tests", "result": 3.5, "unit": "nM"}, {"measurement": "IC50", "setting": "[3]; Homo sapiens, Epithelial cell, LP-FREE SERUM, Table 18, read-out: IC50 PC3", "result": 30, "unit": "nM"}, {"measurement": "IC50", "setting": "[3]; Homo sapiens, Epithelial cell, NORMAL SERUM, Table 18, read-out: IC50 PC3", "result": 4, "unit": "nM"}, {"measurement": "IC50", "setting": "[3]; Homo sapiens, Epithelial cell, Normal Serum, average of tests, read-out: IC50 in PC3", "result": "3.5 ± 0.1", "unit": "nM"}, {"measurement": "IC50", "setting": "[3]; Homo sapiens, Epithelial cell, Serum Free of Lipoprotein, average of tests, read-out: IC50 in PC3", "result": "30.2 ± 6.3", "unit": "nM"}, {"measurement": "IC50", "setting": "[3]; Homo sapiens, Epithelial cell, prostate cancer cell cultures, without lipoproteins, read-out: IC50", "result": 30, "unit": "nM"}, {"measurement": "Si PC3", "setting": "[3]; LP-FREE SERUM, SI=IC50 (Vero)/IC50 (PC3)", "result": 4}, {"measurement": "IC50", "setting": "[3]; Normal Serum, 48 hours, listed as DCX, read-out: IC50 in PC3, individual tests", "result": "3.9 nM and 3.3 nM and 3.4 nM"}, {"measurement": "IC50", "setting": "[3]; Serum Free of Lipoprotein, 48 hours, listed as DCX, read-out: IC50 in PC3, individual tests", "result": "37.5 nM and 34.5 nM and 39 nM and 10 nM"}, {"measurement": "times more toxic in the presence of lipoproteins", "setting": "[3]; prostate cancer cell cultures", "result": 7.5, "unit": "times"}]}]}
